Measured values published in patent publication US9745283B2, “Uracil derivatives as AXL and c-MET kinase inhibitors” (priority 2011, dated 2017).

Target: recombinant human baculovirus-expressed cMET (Homo sapiens (Human), UniProt P08581)
Test: C-MET Kinase Assay (HTRF KinEASE)
Format: biochemical
Settings: average of two or more determinations; read-out: c-MET IC50
Method: The cMET kinase assay was performed in 384-well Fluotrac™ 200 HiBase microplates using the HTRF KinEASE™ assay described above for AXL except that the assay volume was reduced to half. Enzyme concentration was 8 ng/mL of recombinant human baculovirus-expressed cMET while the substrate concentrations were 0.1 μM and 0.02 μM for the biotinylated peptide and ATP, respectively. Instead of the Multidrop Combi, the BioRAPTR® FRD microfluidic workstation (Beckman Coulter, Brea, Calif.) was utilized for reagent additions.
Inhibition curves for compounds were generated by plotting percent control activity versus log 10 of the concentration of compound. IC50 values were calculated by nonlinear regression using the sigmoidal dose-response (variable slope) equation in GraphPad Prism as follows: y=bottom+(top−bottom)/(1+10(log IC50−x)*Hill Slope) where y is the % kinase activity at a given concentration of compound, x is the logarithm of the concentration of compound, bottom is the % of control kinase activity at the highest compound concentration tested, and top is the % of control kinase activity at the lowest compound concentration examined. The values for bottom and top were fixed at 0 and 100, respectively.

Row | SMILES | IC50 [nM]
1 | CCn1cc(C(=O)Nc2ccc(Oc3ccnc4cc(O)c(OC)cc34)c(F)c2)c(=O)n(-c2ccc(F)cc2)c1=O [Example 42, 1-Ethyl-3-(4-fluorophenyl)-2,4-dioxo-1,2,3,4-tetrahydropyrimidine-5-carboxylic acid [3-fluoro-4-(7-hydroxy-6-methoxyquinolin-4-yloxy)phenyl]-amide] | 10 to 100
2 | CCn1cc(C(=O)Nc2ccc(Oc3ccnc4cc(OCCCN5CCOCC5)c(OC)cc34)c(F)c2)c(=O)n(-c2ccc(F)cc2)c1=O [Example 43, 1-Ethyl-3-(4-fluorophenyl)-2,4-dioxo-1,2,3,4-tetrahydropyrimidine-5-carboxylic acid {3-fluoro-4-[6-methoxy-7-(3-morpholin-4-yl-propoxy)quinolin-4-yloxy]phenyl}-amide] | 10 to 100
3 | CCn1cc(C(=O)Nc2ccc(Oc3ccnc4cc(OCCOC)c(OC)cc34)c(F)c2)c(=O)n(-c2ccc(F)cc2)c1=O [Example 44, 1-Ethyl-3-(4-fluorophenyl)-2,4-dioxo-1,2,3,4-tetrahydropyrimidine-5-carboxylic acid {3-fluoro-4-[6-methoxy-7-(2-methoxyethoxy)quinolin-4-yloxy]-phenyl}-amide] | 10 to 100
4 | CCn1cc(C(=O)Nc2ccc(Oc3ccnc4cc(OCCN5CCOCC5)c(OC)cc34)c(F)c2)c(=O)n(-c2ccc(F)cc2)c1=O [Example 45, 1-Ethyl-3-(4-fluorophenyl)-2,4-dioxo-1,2,3,4-tetrahydropyrimidine-5-carboxylic acid {3-fluoro-4-[6-methoxy-7-(2-morpholin-4-yl-ethoxy)-quinolin-4-yloxy]phenyl}-amide] | 10 to 100
5 | COc1cc2c(Oc3ccc(NC(=O)c4cn(C(C)C)c(=O)n(-c5ccc(F)cc5)c4=O)cc3F)ccnc2cc1O [Example 46, 3-(4-Fluorophenyl)-1-isopropyl-2,4-dioxo-1,2,3,4-tetrahydropyrimidine-5-carboxylic acid [3-fluoro-4-(7-hydroxy-6-methoxyquinolin-4-yloxy)-phenyl]-amide] | < 10
6 | CCn1cc(C(=O)N(C)c2ccc(Oc3ccnc4cc(OC)c(OC)cc34)c(F)c2)c(=O)n(-c2ccc(F)cc2)c1=O [Example 48, 1-Ethyl-3-(4-fluorophenyl)-2,4-dioxo-1,2,3,4-tetrahydropyrimidine-5-carboxylic acid [4-(6,7-dimethoxyquinolin-4-yloxy)-3-fluoro-phenyl]-methyl-amide] | 101 to 1000
7 | COc1cc2nccc(Oc3ccc(NC(=O)c4cn(CCCCO)c(=O)n(-c5ccc(F)cc5)c4=O)cc3F)c2cc1OC [Example 55, 3-(4-Fluorophenyl)-1-(4-hydroxybutyl)-2,4-dioxo-1,2,3,4-tetrahydropyrimidine-5-carboxylic acid [4-(6,7-dimethoxyquinolin-4-yloxy)-3-fluorophenyl]-amide] | 10 to 100
8 | COc1cc2nccc(Oc3ccc(NC(=O)c4cn(C(C)C)c(=O)n(-c5ccc(F)cc5)c4=O)cc3)c2cc1C#N [Example 56, 3-(4-Fluorophenyl)-1-isopropyl-2,4-dioxo-1,2,3,4-tetrahydropyrimidine-5-carboxylic acid [4-(6-cyano-7-methoxy-quinolin-4-yloxy)-phenyl]-amide] | 10 to 100
9 | COc1cc2nccc(Oc3ccc(NC(=O)c4cn(CCC5CCCCC5)c(=O)n(-c5ccc(F)cc5)c4=O)cc3F)c2cc1OC [Example 80, 1-(2-Cyclohexyl-ethyl)-3-(4-fluoro-phenyl)-2,4-dioxo-1,2,3,4-tetrahydro-pyrimidine-5-carboxylic acid [4-(6,7-dimethoxy-quinolin-4-yloxy)-3-fluoro-phenyl]-amide] | 101 to 1000
10 | COc1cc2nccc(Oc3ccc(NC(=O)c4cn(CCCc5ccccc5)c(=O)n(-c5ccc(F)cc5)c4=O)cc3F)c2cc1OC [Example 81, 3-(4-Fluoro-phenyl)-2,4-dioxo-1-(3-phenyl-propyl)-1,2,3,4-tetrahydro-pyrimidine-5-carboxylic acid [4-(6,7-dimethoxy-quinolin-4-yloxy)-3-fluoro-phenyl]-amide] | 10 to 100
11 | COc1cc2nccc(Oc3ccc(NC(=O)c4cn(C(C(C)=O)C(=O)N(C)C)c(=O)n(-c5ccc(F)cc5)c4=O)cc3F)c2cc1OC (stereo not drawn) [Example 84, 1-(1-Dimethylcarbamoyl-2-oxo-propyl)-3-(4-fluoro-phenyl)-2,4-dioxo-1,2,3,4-tetrahydro-pyrimidine-5-carboxylic acid [4-(6,7-dimethoxy-quinolin-4-yloxy)-3-fluoro-phenyl]-amide] | 10 to 100
12 | CCn1cc(C(=O)Nc2ccc(Oc3ccnc4cc(OC)c(OC)cc34)c(F)c2)c(=O)n(CC)c1=O [Example 93, 1,3-Diethyl-2,4-dioxo-1,2,3,4-tetrahydro-pyrimidine-5-carboxylic acid [4-(6,7-dimethoxy-quinolin-4-yloxy)-3-fluoro-phenyl]-amide] | 10 to 100
13 | COc1cc2nccc(Oc3ccc(NC(=O)c4cn(C(C)C)c(=O)n(C(C)C)c4=O)cc3F)c2cc1OC [Example 94, 1,3-Diisopropyl-2,4-dioxo-1,2,3,4-tetrahydro-pyrimidine-5-carboxylic acid [4-(6,7-dimethoxy-quinolin-4-yloxy)-3-fluoro-phenyl]-amide] | 10 to 100
14 | COc1cc2nccc(Oc3ccc(NC(=O)c4cn(CC5CC5)c(=O)n(CC5CC5)c4=O)cc3F)c2cc1OC [Example 95, 1,3-Bis-cyclopropylmethyl-2,4-dioxo-1,2,3,4-tetrahydro-pyrimidine-5-carboxylic acid [4-(6,7-dimethoxy-quinolin-4-yloxy)-3-fluoro-phenyl]-amide] | 10 to 100
15 | COc1cc2nccc(Oc3ccc(NC(=O)c4cn(CC=C(C)C)c(=O)n(CC=C(C)C)c4=O)cc3F)c2cc1OC [Example 97, 1,3-Bis-(3-methyl-but-2-enyl)-2,4-dioxo-1,2,3,4-tetrahydro-pyrimidine-5-carboxylic acid [4-(6,7-dimethoxy-quinolin-4-yloxy)-3-fluoro-phenyl]-amide] | 101 to 1000
16 | CCOc1cc2nccc(Oc3ccc(NC(=O)c4nn(CC)c(=O)n(-c5ccc(F)cc5)c4=O)cc3F)c2cc1OCC [Example 109, 2-Ethyl-4-(4-fluorophenyl)-3,5-dioxo-2,3,4,5-tetrahydro[1,2,4]triazine-6-carboxylic acid [4-(6,7-diethoxy-quinolin-4-yloxy)-3-fluoro-phenyl]-amide] | 10 to 100

Other lines, results leading:

Row | IC50 [nM] | SMILES
17 | 101 to 1000 | COc1cc2c(Oc3ccc(NC(=O)c4cn(C(C)C)c(=O)n(-c5ccc(F)cc5)c4=O)cc3F)ccnc2cc1OCc1ccccc1 [Example 41, 3-(4-Fluorophenyl)-1-isopropyl-2,4-dioxo-1,2,3,4-tetrahydropyrimidine-5-carboxylic acid [4-(7-benzyloxy-6-methoxyquinolin-4-yloxy)-3-fluorophenyl]-amide]
18 | 10 to 100 | COc1cc2c(Oc3ccc(NC(=O)c4cn(C(C)C)c(=O)n(-c5ccc(F)cc5)c4=O)cc3F)ccnc2cc1OCCCN1CCOCC1 [Example 47, 3-(4-Fluorophenyl)-1-isopropyl-2,4-dioxo-1,2,3,4-tetrahydropyrimidine-5-carboxylic acid {3-fluoro-4-[6-methoxy-7-(3-morpholin-4-yl-propoxy)-quinolin-4-yloxy]phenyl}-amide]
19 | 10 to 100 | CCn1cc(C(=O)Nc2ccc(Oc3ccnc4cc(OC)c(OC)cc34)c(C3CC3)c2)c(=O)n(-c2ccc(F)cc2)c1=O [Example 59, 1-Ethyl-3-(4-fluoro-phenyl)-2,4-dioxo-1,2,3,4-tetrahydropyrimidine-5-carboxylic acid [3-cyclopropyl-4-(6,7-dimethoxy-quinolin-4-yloxy)-phenyl]-amide]
20 | 101 to 1000 | COc1cc2nccc(Oc3ccc(NC(=O)c4cn(C(C)C)c(=O)n(-c5ccc(F)cc5)c4=O)cc3C3CC3)c2cc1OC [Example 60, 3-(4-Fluoro-phenyl)-1-isopropyl-2,4-dioxo-1,2,3,4-tetrahydro-pyrimidine-5-carboxylic acid [3-cyclopropyl-4-(6,7-dimethoxy-quinolin-4-yloxy)-phenyl]-amide]
21 | 10 to 100 | COc1cc2nccc(Oc3ccc(NC(=O)c4cn(CC(=O)OC(C)(C)C)c(=O)n(-c5ccc(F)cc5)c4=O)cc3F)c2cc1OC [Example 70, [5-[4-(6,7-Dimethoxy-quinolin-4-yloxy)-3-fluoro-phenylcarbamoyl]-3-(4-fluoro-phenyl)-2,4-dioxo-3,4-dihydro-2H-pyrimidin-1-yl]-acetic acid tert-butyl ester]
22 | 101 to 1000 | COc1cc2nccc(Oc3c(F)cc(NC(=O)c4c[nH]c(=O)n(-c5ccc(F)cc5)c4=O)cc3F)c2cc1OC [Example 89, 3-(4-Fluoro-phenyl)-2,4-dioxo-1,2,3,4-tetrahydropyrimidine-5-carboxylic acid [4-(6,7-dimethoxy-quinolin-4-yloxy)-3,5-difluoro-phenyl]-amide]
23 | 10 to 100 | C=CCn1cc(C(=O)Nc2ccc(Oc3ccnc4cc(OC)c(OC)cc34)c(F)c2)c(=O)n(CC=C)c1=O [Example 96, 1,3-Diallyl-2,4-dioxo-1,2,3,4-tetrahydro-pyrimidine-5-carboxylic acid [4-(6,7-dimethoxy-quinolin-4-yloxy)-3-fluoro-phenyl]-amide]
24 | 10 to 100 | C#CCn1cc(C(=O)Nc2ccc(Oc3ccnc4cc(OC)c(OC)cc34)c(F)c2)c(=O)n(CC#C)c1=O [Example 98, 2,4-Dioxo-1,3-di-prop-2-ynyl-1,2,3,4-tetrahydro-pyrimidine-5-carboxylic acid [4-(6,7-dimethoxy-quinolin-4-yloxy)-3-fluoro-phenyl]-amide]
